Article PMC3493566 (2012)
*1 amine or outer side, *2 acyl side, *3 side chain or, on linkers, in order; H or OH if unused. Where a SMILES comes first, the peptide text is derived from it. Bridges are numbered along the chain shown (N, C = ends). Roman numbers before positions name the chains, in order. [ ]: non-standard residue; d: D form. Actinocin(9to1) = Cc1c2oc3c(C)ccc(C(=O)[*:1])c3nc-2c(C(=O)[*:2])c(N)c1=O; NMeV = CN[C@H](C(=O)O)C(C)C; Sar = CNCC(=O)O

Legend:
[1] = test system: 5'-biotin-labeled hairpin DNA duplex (DNA, hairpin) AAAGCTTTTGTAAAGCTTT; test: SPR (BIAcore), ka/kd; details: 50 mM NaCl; 20 mM Tris-HCl pH 7.3, no spermine
[2] = test system: d(TTTGCAAA) duplex (DNA, duplex) TTTGCAAA; test: UV melting at 260 nm; details: Na+ (20 mM sodium cacodylate); pH 7.3, 4 µM duplex, no spermine; ACTD concentration not stated

Ka [1]: 2.48 ± 0.17 × 10^6 M^-1 | Tm [2]: 6.3 °C
Compound: Cc1c2oc3c(C)ccc(C(=O)N[C@@H]4C(=O)N[C@H](C(C)C)C(=O)N5CCC[C@H]5C(=O)N(C)CC(=O)N(C)[C@@H](C(C)C)C(=O)O[C@@H]4C)c3nc-2c(C(=O)N[C@@H]2C(=O)N[C@H](C(C)C)C(=O)N3CCC[C@H]3C(=O)N(C)CC(=O)N(C)[C@@H](C(C)C)C(=O)O[C@@H]2C)c(N)c1=O (I: T[dV]P[Sar][NMeV] / II: T[dV]P[Sar][NMeV]; ester I:1-I:C, II:1-II:C; linker I:N-II:N via Actinocin(9to1))
